This note sets out measurements from article PMC7116141 (Journal of the American Chemical Society, 2006).

The target of this assay is T1, human OGA (hOGA, O-GlcNAcase) (Homo sapiens, UniProt O60502).
T1 sequence (O60502 1-916): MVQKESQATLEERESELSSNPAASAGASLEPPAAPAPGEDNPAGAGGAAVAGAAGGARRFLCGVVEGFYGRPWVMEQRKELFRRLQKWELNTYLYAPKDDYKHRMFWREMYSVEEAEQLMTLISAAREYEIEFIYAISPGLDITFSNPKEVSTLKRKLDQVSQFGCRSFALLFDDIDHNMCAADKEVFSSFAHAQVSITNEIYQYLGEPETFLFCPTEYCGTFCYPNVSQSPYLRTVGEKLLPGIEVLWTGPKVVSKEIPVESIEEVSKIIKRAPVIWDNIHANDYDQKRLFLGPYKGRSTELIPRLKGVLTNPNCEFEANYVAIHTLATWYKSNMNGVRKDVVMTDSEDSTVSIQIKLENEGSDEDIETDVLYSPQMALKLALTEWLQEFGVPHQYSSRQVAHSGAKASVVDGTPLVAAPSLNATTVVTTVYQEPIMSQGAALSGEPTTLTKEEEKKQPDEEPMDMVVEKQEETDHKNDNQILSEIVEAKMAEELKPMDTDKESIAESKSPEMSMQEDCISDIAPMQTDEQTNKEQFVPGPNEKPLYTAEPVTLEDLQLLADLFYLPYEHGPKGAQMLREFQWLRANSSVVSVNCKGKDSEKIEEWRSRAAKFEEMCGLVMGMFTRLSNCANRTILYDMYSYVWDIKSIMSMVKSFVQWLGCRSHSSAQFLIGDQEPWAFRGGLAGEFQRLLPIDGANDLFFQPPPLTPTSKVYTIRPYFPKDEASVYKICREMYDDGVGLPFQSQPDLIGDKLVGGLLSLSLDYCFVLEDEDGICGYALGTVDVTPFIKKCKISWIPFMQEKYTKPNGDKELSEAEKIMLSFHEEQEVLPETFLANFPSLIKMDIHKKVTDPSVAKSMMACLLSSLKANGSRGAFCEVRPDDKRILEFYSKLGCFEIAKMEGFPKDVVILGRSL
The assay can be described thus: anti-O-GlcNAc immunoblot of treated HEK […] cells. Format: cell-based.

In the case of `CC(C)C(=O)N[C@H]1c2nc(CCc3ccccc3)cn2[C@H](CO)[C@@H](O)[C@@H]1O` [compound 1, GlcNAcstatin], the “anti-O-GlcNAc immunoblot of treated HEK 293 cells (qualitative)” value was “is active against human OGA (hOGA) in human cell lines”.
